Consider 44 compounds from US11629139B2 (priority 2017, dated 2023).

Some results are limits rather than exact numbers.

One may read the IC50 as the concentration that gives 50% inhibition. Read a high IC50 as a need for much substance.

The subject of the first assay is vesicular stomatitis virus particles (VSV) pseudotyped with EboV Zaire GP. Put plainly: microbe, parasite or virus in culture.
Settings: not given
The class given is cell-based.
Consider `Nc1ccc(Cl)cc1CN1CCN(C(=O)CNC(=O)C2CC23CCC3)CC1` (centres unmarked) [Compound 1409, N-(2-(4-(2-Amino-5-chlorobenzyl)piperazin-1-yl)-2-oxoethyl)spiro[2.3]hexane-1-carboxamide], for which the midpoint of inhibition, the IC50, lay at 2.9 µM. Compound `Nc1ccc(Cl)cc1CN1CCN(C(=O)CNC(=O)C2CC23CCCC3)CC1` (centres unmarked) [Compound 1410, N-(2-(4-(2-Amino-5-chlorobenzyl)piperazin-1-yl)-2-oxoethyl)spiro[2.4]heptane-1-carboxamide] gave an IC50 of 0.22 to 0.49 µM.

Staying with this assay, now noted: Vesicular stomatitis virus.
Regarding `O=C(CC1CCC(F)(F)CC1)NCC(=O)N1CCN(Cc2ccc(F)c(Cl)c2F)CC1` [Compound 1408], it took 4 µM to reach half-maximal inhibition (IC50). `CCC1(CC)CC1C(=O)NCC(=O)N1CCN(Cc2cc(Cl)ccc2N)CC1` (centres unmarked) [Compound 1411, N-(2-(4-(2-amino-5-chlorobenzyl)piperazin-1-yl)-2-oxoethyl)-2,2-diethylcyclopropane-1-carboxamide] gave an IC50 of 0.14 µM. Regarding `O=C(NCC(=O)N1CCN(Cc2cccc3cccnc23)CC1)C1CC12CCC(F)(F)CC2` (centres unmarked) [Compound 1420, 6,6-Difluoro-N-(2-oxo-2-(4-(quinolin-8-ylmethyl)piperazin-1-yl)ethyl)spiro[2.5]octane-1-carboxamide], the IC50 came out at 0.49 µM. `O=C(NCC(=O)N1CCN(Cc2cc(Cl)cc3cn[nH]c23)CC1)C1CC12CCC(F)(F)CC2` (centres unmarked) [Compound 1421, N-(2-(4-((5-Chloro-JH-indazol-7-yl)methyl)piperazin-1-yl)-2-oxoethyl)-6,6-difluorospiro[2.5]octane-1-carboxamide] gave an IC50 of over 5 µM.

Compound `O=C(CC1CCC(F)(F)CC1)NCC(=O)N1CCN(Cc2cc(Cl)cc3cccnc23)CC1` [Compound 1422, N-(2-(4-((6-Chloroquinolin-8-yl)methyl)piperazin-1-yl)-2-oxoethyl)-2-(4,4-difluorocyclohexyl)acetamide] gave an IC50 of 0.36 µM. `CC1(CC(=O)NCC(=O)N2CCN(Cc3cc(Cl)cc4cccnc34)CC2)CCOCC1` [Compound 1424] showed a 50% inhibitory concentration (IC50) of 2.8 µM.

In turn, `O=C(NCC(=O)N1CCN(Cc2cc(Cl)ccc2O)CC1)C1CC1c1ccc(F)cc1` (centres unmarked) [Compound 1425, N-(2-(4-(5-Chloro-2-hydroxybenzyl)piperazin-1-yl)-2-oxoethyl)-2-(4-fluorophenyl)cyclopropane-1-carboxamide] came in with an IC50 of 3.4 µM.

Compound `O=C(CC1CCC(F)(F)CC1)NCC(=O)N1CCN(Cc2cccc3ccncc23)CC1` [Compound 1427] came in with an IC50 of 2.45 µM. For the compound `O=C(CC1CCC(F)(F)CC1)NCC(=O)N1CCN(Cc2cccc3ncccc23)CC1` [Compound 1428, 2-(4,4-Difluorocyclohexyl)-N-(2-oxo-2-(4-(quinolin-5-ylmethyl)piperazin-1-yl)ethyl)acetamide], the IC50 is over 5 µM.

With `O=C(CC1CCC(F)(F)CC1)NCC(=O)N1CCN(Cc2cc(F)cc3cccnc23)CC1` [Compound 1429, 2-(4,4-Difluorocyclohexyl)-N-(2-(4-((6-fluoroquinolin-8-yl)methyl)piperazin-1-yl)-2-oxoethyl)acetamide], the IC50 is 0.95 µM. In other words, the sub-micromolar range.

In the case of `Cc1ccc(Cl)cc1CN1CCN(C(=O)CNC(=O)C2CC23CCC(F)(F)CC3)CC1` (centres unmarked) [Compound 1431, N-(2-(4-(5-Chloro-2-methylbenzyl)piperazin-1-yl)-2-oxoethyl)-6,6-difluorospiro[2.5]octane-1-carboxamide], the IC50 came to 0.55 µM. As for `O=C(CC1CCC(F)(F)CC1)NCC(=O)N1CCN(Cc2cc(Cl)cc(Oc3ccncc3)c2)CC1` [Compound 1432, N-(2-(4-(3-Chloro-5-(pyridin-4-yloxy)benzyl)piperazin-1-yl)-2-oxoethyl)-2-(4,4-difluorocyclohexyl)acetamide], the IC50 was determined as 0.185 µM. Consider `[2H]C([2H])(c1cc(Cl)cc2cc[nH]c12)N1CCN(C(=O)CNC(=O)CC2CCC(F)(F)CC2)CC1` [Compound 1433, N-(2-(4-((5-Chloro-JH-indol-7-yl)methyl-d2)piperazin-1-yl)-2-oxoethyl)-2-(4,4-difluorocyclohexyl)acetamide], for which the IC50 is over 5 µM. For `COC(=O)c1cccc(-c2cc(Cl)cc(CN3CCN(C(=O)CNC(=O)CC45CC6CC(C4)C(C6)C5)CC3)c2)c1` [Compound 1441], the IC50 was 0.248 µM. The compound `CC(=O)N1CCC(Oc2cc(F)cc(CN3CCN(C(=O)CNC(=O)C4CC45CCC(F)(F)CC5)CC3)c2)CC1` (centres unmarked) [Compound 1442] showed an IC50 of 0.6 µM. `CS(=O)(=O)c1ccc(COc2ccc(F)cc2CN2CCN(C(=O)CNC(=O)CC34CC5CC(CC(C5)C3)C4)CC2)cc1` [Compound 1443] displayed an IC50 of 0.0045 µM. Against the preceding compound, the IC50 is about 130-fold lower. Still for that read-out and setting: then `O=C(CC12CC3CC(C1)C(C3)C2)NCC(=O)N1CCN(Cc2cc(F)ccc2OCc2ccc3nonc3c2)CC1` [Compound 1444], with 0.025 µM; and `CC(=O)Nc1ccc(COc2ccc(F)cc2CN2CCN(C(=O)CNC(=O)CC34CC5CC(C3)C(C5)C4)CC2)cc1` [Compound 1445], with 0.71 µM. On the same count and under the same terms, the same measure for `O=C(CC1CCC(F)(F)CC1)NCC(=O)N1CCN(Cc2cccc(Oc3ccccn3)c2)CC1` [Compound 1451]: over 5 µM.

For the compound `CC(=O)N1CCCC(Oc2cc(F)cc(CN3CCN(C(=O)CNC(=O)C4CC45CCC(F)(F)CC5)CC3)c2)C1` (centres unmarked) [Compound 1453], the IC50 is over 5 µM. `CS(=O)(=O)c1ccc(COc2ccc(F)cc2CN2CCN(C(=O)CNC(=O)CC3CCC(F)(F)CC3)CC2)cc1` [Compound 1455]: it took 0.04 µM to reach half-maximal inhibition (IC50).

Compound `O=C(CC1CCC(F)(F)CC1)NCC(=O)N1CCN(Cc2cc(F)ccc2OCc2ccc3nonc3c2)CC1` [Compound 1456] came in with an IC50 of 0.19 µM.

`CS(=O)(=O)c1ccc(Oc2cc(F)cc(CN3CCN(C(=O)CNC(=O)C4CC45CCC(F)(F)CC5)CC3)c2)cc1` (centres unmarked) [Compound 1459]: the midpoint of inhibition, the IC50, lay at 0.2 µM. For `CS(=O)(=O)c1ccc(Oc2cc(F)cc(CN3CCN(C(=O)CNC(=O)CC4CCC(F)(F)CC4)CC3)c2)cc1` [Compound 1460], the IC50 was over 1 µM. `CS(=O)(=O)c1ccc(Oc2cc(Cl)cc(CN3CCN(C(=O)CNC(=O)C4CC45CCC(F)(F)CC5)CC3)c2)cc1` (centres unmarked) [Compound 1461] registered an IC50 of 0.15 µM. This counts as sub-micromolar. The same measure, in the same setting: the same measure for `CS(=O)(=O)c1ccc(Oc2cc(Cl)cc(CN3CCN(C(=O)CNC(=O)CC4CCC(F)(F)CC4)CC3)c2)cc1` [Compound 1462]: over 1 µM; for `[2H]C([2H])(c1cc(Cl)ccc1NCC)N1CCN(C(=O)CNC(=O)C2CC23CCC(F)(F)CC3)CC1` (centres unmarked) [Compound 1534]: 0.2 µM; for `CS(=O)(=O)c1ccc(COc2ccc(Cl)cc2CN2CCN(C(=O)CNC(=O)C3CC34CCCCC4)CC2)cc1` (centres unmarked) [Compound 1539, Spiro[2.5]octane-1-carboxylic acid (2-{4-[5-chloro-2-(4-methanesulfonyl-benzyloxy)-benzyl]-piperazin-1-yl}-2-oxo-ethyl)-amide]: 0.1 µM.

Regarding `[2H]C([2H])(c1cc(Cl)ccc1NCc1ccc(C(=O)OC)cn1)N1CCN(C(=O)CNC(=O)C2CC23CCC(F)(F)CC3)CC1` (centres unmarked) [Compound 1548, 6-{[4-Chloro-2-(4-{2-[(6,6-difluoro-spiro[2.5]octane-1-carbonyl)-amino]-acetyl}-piperazin-1-yl-di-deutero-methyl)-phenylamino]-methyl}-nicotinic acid methyl ester], half-maximal inhibition (IC50) was put at 0.007 µM. Turning to `[2H]C([2H])(c1cc(Cl)ccc1NCc1ccc(C(=O)OC)nc1)N1CCN(C(=O)CNC(=O)C2CC23CCC(F)(F)CC3)CC1` (centres unmarked) [Compound 1549, 5-{[4-Chloro-2-(4-{2-[(6,6-difluoro-spiro[2.5]octane-1-carbonyl)-amino]-acetyl}-piperazin-1-yl-di-deutero-methyl)-phenylamino]-methyl}-pyridine-2-carboxylic acid methyl ester], the IC50 was found to be 0.05 µM.

Take `[2H]C([2H])(c1cc(Cl)ccc1NCc1cnco1)N1CCN(C(=O)CNC(=O)C2CC23CCC(F)(F)CC3)CC1` (centres unmarked) [Compound 1560]: the IC50 is 0.04 µM. The compound `[2H]C([2H])(c1cc(Cl)ccc1NCc1ccc(S(C)(=O)=O)c(F)c1)N1CCN(C(=O)CNC(=O)[C@@H]2CC23CCC(F)(F)CC3)CC1` [Compound 1561] yielded an IC50 of 0.008 µM. This IC50 is about 5-fold lower than that of the compound before.

`[2H]C([2H])(c1cc(Cl)ccc1NCc1ccc(S(C)(=O)=O)cc1F)N1CCN(C(=O)CNC(=O)[C@@H]2CC23CCC(F)(F)CC3)CC1` [Compound 1562] displayed an IC50 of 0.013 µM. This IC50 is about 1.6-fold higher than that of the compound before. On the same count and under the same terms, then `[2H]C([2H])(c1cc(Cl)ccc1NCc1ncccn1)N1CCN(C(=O)CNC(=O)[C@@H]2CC23CCC(F)(F)CC3)CC1` [Compound 1580], with 0.7 µM; and `[2H]C([2H])(c1cc(Cl)ccc1NCc1ccon1)N1CCN(C(=O)CNC(=O)[C@@H]2CC23CCC(F)(F)CC3)CC1` [Compound 1581], with 0.47 µM; and `[2H]C([2H])(c1cc(Cl)ccc1NCc1ccc(F)cn1)N1CCN(C(=O)CNC(=O)[C@@H]2CC23CCC(F)(F)CC3)CC1` [Compound 1582], with 0.24 µM.

Take `[2H]C([2H])(c1cc(Cl)ccc1NCc1cocn1)N1CCN(C(=O)CNC(=O)[C@@H]2CC23CCC(F)(F)CC3)CC1` [Compound 1583]: the IC50 was 0.15 µM. Same read-out and setting: then `[2H]C([2H])(c1cc(Cl)ccc1NCc1ccc(C#N)cn1)N1CCN(C(=O)CNC(=O)[C@@H]2CC23CCC(F)(F)CC3)CC1` [Compound 1584], with 0.03 µM.

Compound `O=C(NCC(=O)N1CCN(Cc2cc(Cl)ccc2NCc2ncco2)CC1)[C@@H]1CC12CCC(F)(F)CC2` [Compound 1585] displayed an IC50 of 1.3 µM.

`[2H]C([2H])(c1cc(Cl)ccc1NCc1ccc(S(C)(=O)=O)cn1)N1CCN(C(=O)CNC(=O)[C@@H]2CC23CCC(F)(F)CC3)CC1` [Compound 1586] registered an IC50 of 0.045 µM. Compared with the last compound, the IC50 is about 29-fold lower.

Compound `[2H]C([2H])(c1cc(Cl)ccc1NCc1cnco1)N1CCN(C(=O)CNC(=O)[C@@H]2CC23CCC(F)(F)CC3)CC1` [Compound 1587] returned an IC50 of 0.13 µM. `CS(=O)(=O)c1ccc(COc2ccc(Cl)cc2CN2CCN(C(=O)CNC(=O)C3CC34CCC(F)(F)CC4)CC2)nc1` (centres unmarked) [Compound 1621, 6,6-Difluoro-spiro[2.5]octane-1-carboxylic acid (2-{4-[5-chloro-2-(5-methanesulfonyl-pyridin-2-ylmethoxy)-benzyl]-piperazin-1-yl}-2-oxo-ethyl)-amide] yielded an IC50 of 0.03 µM.
